# Reference: paper PMC10247784, “Physiological activation of human and mouse bitter taste receptors by bile acids” (Communications Biology, 2023)
# Values joined by “and” are separate entries in the source; they are usually repeats but may differ in a detail not shown here. Equal values may be shown once.
# Molecular target: T1, human TAS2R1 (Homo sapiens, UniProt Q9NYW7)
# T1 construct: expressed in transfected cells; host or cells: HEK293T-Gα16gust44
# T1 sequence (Q9NYW7 1-299): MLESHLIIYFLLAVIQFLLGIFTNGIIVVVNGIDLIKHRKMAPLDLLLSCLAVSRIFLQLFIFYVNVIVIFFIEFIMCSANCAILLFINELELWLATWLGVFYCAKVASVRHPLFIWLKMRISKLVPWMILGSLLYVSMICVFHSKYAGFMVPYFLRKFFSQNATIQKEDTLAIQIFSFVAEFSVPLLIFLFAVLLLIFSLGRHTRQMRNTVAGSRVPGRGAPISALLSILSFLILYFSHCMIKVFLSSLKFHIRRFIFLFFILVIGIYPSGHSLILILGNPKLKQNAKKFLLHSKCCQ
# Experiment: Calcium imaging assay (FLIPR), HEK293T-Gα16gust44 cells transfected with human TAS2R1
# Type: cell-based
# Summary of the method: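 HEK293T-Gα16gust44 cells transiently transfected with the bitter-taste receptor, loaded next day with Fluo-4-AM plus 2.5 mM probenecid, and challenged with bile acids on FLIPR Tetra. Signals mock-subtracted, expressed as ΔF/F vs buffer.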
compound,measurement,setting,value
"C[C@H](CCC(=O)O)[C@H]1CC[C@H]2[C@@H]3[C@@H](O)C[C@@H]4C[C@H](O)CC[C@]4(C)[C@H]3CC[C@]12C [Ursodeoxycholic Acid, ursodeoxycholic acid]",Efficacy = maximal amplitude (ΔF/F),"TAS2R1, bile acids, mean",0.1201
same,"Efficacy (maximal amplitude ΔF/F), individual data points","TAS2R1, bile acids, single replicates, listed as UDCA",0.1146 and 0.1323 and 0.1134
same,RLU,Time 0 s,0 RLU
same,RLU,Time 2.015 s,-1.909 RLU
same,RLU,Time 4.015 s,-10.1979 RLU
same,RLU,Time 6.015 s,-25.0303 RLU
same,RLU,Time 8.015 s,-6.66 RLU
same,RLU,Time 12.015 s,-0.9118 RLU
same,RLU,Time 14.015 s,-27.1256 RLU
same,RLU,Time 16.015 s,-36.3442 RLU
same,RLU,Time 18.015 s,-16.5405 RLU
same,RLU,Time 18.796 s,-5.241 RLU
same,RLU,Time 20.796 s,-5.4345 RLU
same,RLU,Time 22.796 s,-14.9172 RLU
same,RLU,Time 24.796 s,111.581 RLU
same,RLU,Time 26.796 s,220.014 RLU
same,RLU,Time 28.796 s,332.008 RLU
same,RLU,Time 30.796 s,471.987 RLU
same,RLU,Time 32.796 s,554.696 RLU
same,RLU,Time 34.796 s,591.628 RLU
same,RLU,Time 36.796 s,614.691 RLU
same,RLU,Time 38.796 s,661.973 RLU
same,RLU,Time 40.796 s,688.451 RLU
same,RLU,Time 42.796 s,682.803 RLU
same,RLU,Time 44.796 s,694.821 RLU
same,RLU,Time 46.796 s,713.853 RLU
same,RLU,Time 48.796 s,712.245 RLU
same,RLU,Time 50.796 s,701.71 RLU
same,RLU,Time 52.796 s,706.484 RLU
same,RLU,Time 54.796 s,693.141 RLU
same,RLU,Time 56.796 s,703.514 RLU
same,RLU,Time 58.796 s,690.888 RLU
same,RLU,Time 60.796 s,687.968 RLU
same,RLU,Time 62.796 s,660.683 RLU
same,RLU,Time 64.796 s,647.003 RLU
same,RLU,Time 66.796 s,672.518 RLU
same,RLU,Time 68.796 s,641.326 RLU
same,RLU,Time 70.796 s,644.562 RLU
same,RLU,Time 72.796 s,618.535 RLU
same,RLU,Time 74.796 s,611.038 RLU
same,RLU,Time 76.796 s,596.187 RLU
same,RLU,Time 78.796 s,593.169 RLU
same,RLU,Time 80.796 s,594.173 RLU
same,RLU,Time 82.796 s,573.074 RLU
same,RLU,Time 84.796 s,565.693 RLU
same,RLU,Time 86.796 s,545.003 RLU
same,RLU,Time 88.796 s,536.557 RLU
same,RLU,Time 90.796 s,528.103 RLU
same,RLU,Time 92.796 s,490.474 RLU
same,RLU,Time 94.796 s,507.179 RLU
same,RLU,Time 96.796 s,484.826 RLU
same,RLU,Time 98.796 s,487.253 RLU
same,RLU,Time 100.796 s,484.348 RLU
same,RLU,Time 102.796 s,464.491 RLU
same,RLU,Time 104.796 s,467.659 RLU
same,RLU,Time 106.796 s,432.725 RLU
same,RLU,Time 108.796 s,406.747 RLU
same,RLU,Time 110.796 s,379.699 RLU
same,RLU,Time 112.796 s,357.544 RLU
same,RLU,Time 114.796 s,362.533 RLU
same,RLU,Time 116.796 s,332.202 RLU
same,RLU,Time 118.796 s,323.517 RLU
same,RLU,Time 120.796 s,321.799 RLU
same,RLU,Time 122.796 s,311.834 RLU
same,RLU,Time 124.796 s,301.938 RLU
same,RLU,Time 126.796 s,306.062 RLU
same,RLU,Time 128.796 s,271.359 RLU
same,RLU,Time 130.796 s,275.474 RLU
same,RLU,Time 132.796 s,247.428 RLU
same,RLU,Time 134.796 s,253.899 RLU
same,RLU,Time 136.796 s,243.041 RLU
same,RLU,Time 137.562 s,220.326 RLU
same,RLU,Time 143.562 s,203.668 RLU
same,RLU,Time 149.562 s,176.37 RLU
same,RLU,Time 155.562 s,166.486 RLU
same,RLU,Time 161.562 s,168.826 RLU
same,RLU,Time 167.562 s,116.188 RLU
same,RLU,Time 173.562 s,124.68 RLU
same,RLU,Time 179.562 s,97.5703 RLU
same,RLU,Time 185.562 s,83.8515 RLU
same,RLU,Time 191.562 s,81.5894 RLU
same,RLU,Time 197.562 s,63.0668 RLU
same,RLU,Time 203.562 s,46.8203 RLU
same,RLU,Time 209.562 s,23.6957 RLU
same,RLU,Time 215.562 s,20.9611 RLU
same,RLU,Time 221.562 s,21.314 RLU
same,RLU,Time 227.562 s,32.3726 RLU
same,RLU,Time 233.562 s,4.71 RLU
same,RLU,Time 239.562 s,3.353 RLU
same,RLU,Time 245.562 s,-15.0975 RLU
same,RLU,Time 293.562 s,-21.0295 RLU
same,RLU,Time 299.562 s,-10.1171 RLU
same,RLU,"calcium trace, sheet TAS2R1, Time 305.562 s",-21.932 RLU
same,RLU,"calcium trace, sheet TAS2R1, Time 311.562 s",-35.6948 RLU
same,RLU,"calcium trace, sheet TAS2R1, Time 317.562 s",-15.7818 RLU
same,RLU,"calcium trace, sheet TAS2R1, Time 323.562 s",-21.7457 RLU
same,RLU,"calcium trace, sheet TAS2R1, Time 329.562 s",-25.1818 RLU
same,RLU,"calcium trace, sheet TAS2R1, Time 335.562 s",-20.2182 RLU
same,RLU,"calcium trace, sheet TAS2R1, Time 341.562 s",10.616 RLU
same,RLU,"calcium trace, sheet TAS2R1, Time 347.562 s",-20.1556 RLU
same,RLU,"calcium trace, sheet TAS2R1, Time 353.562 s",-12.0438 RLU
same,RLU,"calcium trace, sheet TAS2R1, Time 359.562 s",-31.063 RLU
same,Δ F/F,"conc. 0,01 mM, TAS2R1",0.05863
same,Δ F/F,"conc. 0,03 mM, TAS2R1",0.1201
same,Δ F/F,"conc. 0,0001 mM, TAS2R1",-0.003399
same,Δ F/F,"conc. 0,0003 mM, TAS2R1",0.009061
same,Δ F/F,"conc. 0,001 mM, TAS2R1",0.007937
same,Δ F/F,"conc. 0,003 mM, TAS2R1",0.01609
same,Activation threshold concentration TAS2R1,lowest concentration with significantly increased fluorescence vs empty vector (p < 0.01),3 µM and 3.00 µM
